Measurements published in patent US20060079479A1, “Methods of inducing vasodilation” (priority 2004, published 2006).

How the values were obtained:
human subjects = assay: Forearm blood flow (FBF) after infusion into forearm arteries of human subjects; type: in vivo; conditions: for forearm blood flow (FBF) before infusion (baseline): baseline value before forearm artery infusion; for forearm blood flow (vasodilation) at calculated equimolar concentrations: forearm artery infusion, calculated equimolar 1 μmol/min
Procedure: Blood pressure, heart rate, and respiration were continuously monitored throughout the administration. A physician was present throughout the study and monitored for side effects. At the end of each infusion period, the forearm blood flow (FBF) of each subject was then measured by standard techniques.
A physician was present, and the subject was monitored throughout the infusion, as in Example 1.

[1] = in pharmaceutically acceptable carriers; cited from earlier work
[2] = uptake by nucleoside transporter in red blood cells; cited from earlier work
[3] = forearm artery infusion 0.125 mg/min for 15 minutes

SMILES | vasodilation compared with adenosine at calculated equimolar concentrations (human subjects; 1 μmol/min, p<0.02) | forearm blood flow (FBF) before infusion (baseline) (human subjects) [ml/100 ml/min] | forearm blood flow (FBF) at end of infusion (human subjects; [3]) [ml/100 ml/min] | forearm blood flow (FBF) at end of infusion (human subjects; forearm artery infusion 0.5 mg/min for 15 minutes) [ml/100 ml/min] | forearm blood flow (vasodilation) at calculated equimolar concentrations (human subjects) [ml/100 ml/min] | limit of solubility [1] | half-life in blood [2]
Nc1ncnc2c1ncn2[C@@H]1O[C@H](COP(=O)(O)O)[C@@H](O)[C@H]1O [AMP, Adenosine 5′-monophosphate] | significantly greater vasodilation | 3.8±0.5 | 16.3±1.6 | 20.7±1.8 | 19.4±1.8 | approximately 400 mg/ml | 
Nc1ncnc2c1ncn2[C@@H]1O[C@H](CO)[C@@H](O)[C@H]1O [adenosine, reference compound] |  | 3.1±0.2 | 14.2±2.0 |  | 15.6±1.9 | approximately 5 mg/ml | less than 1 second
